Results: BindingDB's records for doi:10.1016/s0960-894x(01)00313-4 (Cor Therapeutics, 2001)
pIC50: −log10 of the molar value.

Target: P2Y purinoceptor 12 (Homo sapiens, UniProt Q9H244)
Assay: ChEBML_162514
Excerpt: Ability to displace [3H]2-MeS-ADP from human Purinergic receptor P2Y12

Sequence of P2Y purinoceptor 12 (Q9H244 whole entry): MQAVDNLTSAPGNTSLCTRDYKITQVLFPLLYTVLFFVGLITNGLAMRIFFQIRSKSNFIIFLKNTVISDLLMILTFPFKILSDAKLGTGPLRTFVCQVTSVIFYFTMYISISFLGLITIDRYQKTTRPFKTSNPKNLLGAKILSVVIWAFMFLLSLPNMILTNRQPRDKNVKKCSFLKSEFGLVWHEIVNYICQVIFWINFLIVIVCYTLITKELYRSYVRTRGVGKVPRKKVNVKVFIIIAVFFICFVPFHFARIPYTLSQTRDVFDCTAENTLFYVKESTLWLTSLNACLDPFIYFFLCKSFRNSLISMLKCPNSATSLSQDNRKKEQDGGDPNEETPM

Structure (SMILES) | pIC50
O=C1CS(=O)(=O)N=C2Sc3cc(OC(F)(F)F)ccc3N12 [2,2-Dioxo-7-trifluoromethoxy-2H-2lambda*6*,9-dithia-1,4a-diaza-fluoren-4-ol] | < 3.92
O=C(CS(=O)(=O)Nc1nc2ccc([N+](=O)[O-])cc2s1)C1=C([O-])[n+]2c(sc3cc([N+](=O)[O-])ccc32)NS1(=O)=O [2-(4-Hydroxy-7-nitro-2,2-dioxo-2H-2lambda*6*,9-dithia-1,4a-diaza-fluoren-3-yl)-2-oxo-ethanesulfonic acid (6-nitro-benzothiazol-2-yl)-amide] | 4.46
O=C(CS(=O)(=O)Nc1nc2ccc(Cl)cc2s1)C1C(=O)N2C(=NS1(=O)=O)Sc1cc(Cl)ccc12 (stereo unspecified) [2-(7-Chloro-4-hydroxy-2,2-dioxo-2H-2lambda*6*,9-dithia-1,4a-diaza-fluoren-3-yl)-2-oxo-ethanesulfonic acid (6-chloro-benzothiazol-2-yl)-amide] | 4.46
O=C(CS(=O)(=O)Nc1nc2ccc(C3CCCCC3)cc2s1)C1C(=O)N2C(=NS1(=O)=O)Sc1cc(C3CCCCC3)ccc12 (stereo unspecified) [2-(7-Cyclohexyl-4-hydroxy-2,2-dioxo-2H-2lambda*6*,9-dithia-1,4a-diaza-fluoren-3-yl)-2-oxo-ethanesulfonic acid (6-cyclohexyl-benzothiazol-2-yl)-amide] | < 3.92

The next lines start with the values.

pIC50 | Structure (SMILES)
< 4.30 | O=C(CS(=O)(=O)Nc1nc2ccc(Oc3ccccc3)cc2s1)C1C(=O)N2C(=NS1(=O)=O)Sc1cc(Oc3ccccc3)ccc12 (stereo unspecified) [2-(4-Hydroxy-2,2-dioxo-7-phenoxy-2H-2lambda*6*,9-dithia-1,4a-diaza-fluoren-3-yl)-2-oxo-ethanesulfonic acid (6-phenoxy-benzothiazol-2-yl)-amide]
< 4.30 | O=C(CS(=O)(=O)Nc1nc2ccc(-c3ccccc3)cc2s1)C1C(=O)N2C(=NS1(=O)=O)Sc1cc(-c3ccccc3)ccc12 (stereo unspecified) [2-(4-Hydroxy-2,2-dioxo-7-phenyl-2H-2lambda*6*,9-dithia-1,4a-diaza-fluoren-3-yl)-2-oxo-ethanesulfonic acid (6-phenyl-benzothiazol-2-yl)-amide]
